The source of these data is patent publication US10077239B2, “Crystalline forms of a hepatitis B antiviral agent” (NOVIRA THERAPEUTICS, INC, priority 2015, dated 2018).

The term solubility denotes the concentration that dissolves in the medium under given conditions.

Common to all, as to format: physicochemical
Series [1] in a line: pH solubility profile.
The nature of series [2]: Hygroscopicity by dynamic vapor sorption (DVS). The note with it: for Hydrophilicity / hygroscopicity rating from DVS / Hysteresis between initial and final state, DVS: 37° C.; for Water (moisture) uptake, DVS: from 0% to 100% RH at 37° C. The method, then:
DVS The temperature and RH are pre-set according to the initial temperature and RH. Method at 37° C.: • Equilibrating 20 min at 50% • Set from 50% to 0% • Equilibrating 20 min at 0% RH • Set from 0% to 100% by step of 10% RH (50% RH per hour) • 3 hours at 100% RH • From 100% RH to 0% RH by step of 10% RH (−50% RH per hour) • Equilibrating 20 min at 0% RH • Set from 0% to 50% • Equilibrating 20 min at 50% RH Particle Size Distribution (Malvern)

Series [3] can be described thus: Solubility of the crystalline forms.
The nature of series [4]: Particle size distribution (Malvern laser diffraction). To be noted: for Particle size D10 after sonication / Particle size D50 after sonication / Particle size D90 after sonication: after ultrasound treatment (40 seconds); for Particle size D10 / Particle size D50 / Particle size D90: without ultrasound treatment. The method, then:
• Equilibrating 20 min at 50% • Set from 50% to 0% • Equilibrating 20 min at 0% RH • Set from 0% to 100% by step of 10% RH (50% RH per hour) • 3 hours at 100% RH • From 100% RH to 0% RH by step of 10% RH (−50% RH per hour) • Equilibrating 20 min at 0% RH • Set from 0% to 50% • Equilibrating 20 min at 50% RH Particle Size Distribution (Malvern) A total of 3 measurements by batch were made to ensure repeatable and reproducible results. • Dispersant: Silicon oil. A good dispersion is observed in this media and Compound (1) is not soluble in silicon oil. • Stirring: 2000 rpm • lens: 300RF • Analysis model: polydisperse • Presentation code: 3OAE • Number of measurement sweeps: 5000 • Density: 1.000 g·cm^3 • With or without stage of ultrasound

A short description of series [5]: Stability under simulated storage conditions: XRPD under temperature and relative humidity. The note with it: for XRPD under RH: phase transition: 10% to 80% RH at 25° C. The method, then:
Stability Under Simulated Storage Conditions: XRPD The stability of crystalline Forms I and XVI was characterized by XRPD under temperature and relative humidity conditions that stimulate potential storage conditions. XRPD XRPD was performed on a PHILIPS PANalytical, X'Pert Pro. diffractometer The experimental conditions are the following: • Configuration Bragg-Brentano: θ−θ • Source: Cu with Kα1 at λ=1.5406 Å. • The power supply works at 45 kV and 40 mA. • Detector: PSD X'Celerator in scanning mode • Sample temperature: room temperature • Angular variation: from 2θ=3° to 45° • Step size [° 2θ]: 0.008 • Scan step time (in s): 13 39 • Duration: 20 min according to the diffraction intensity A few mg of sample were prepared on a silicon plate without any special treatment other than a slight pressure to obtain a flat and homogeneous surface for reproducible and repeatable results.

Series [6] is described as follows: Thermal analysis (DSC/TGA/hot stage): decomposition. Here is the method: Thermal Analysis (DSC/TGA/Hot Stage) An accurate amount of compound (mg scale) is set up in 40 μL Al crucible with perforated lids. The heating rate is 20° C./min in a nitrogen gas flow. The heating ranged from 30 to 400° C.
The nature of series [7]: Stability under simulated storage conditions: XRPD under temperature and relative humidity. The note with it: for XRPD under temperature: phase transition: temperature increased from 25° C. to 160° C.

Entries after “also recorded” stand apart in the source; their conditions may differ. Like-named read-outs stand apart in the source and are kept apart here.

On to `O=C(Nc1cc(F)c(F)c(F)c1)c1ccc(F)c(S(=O)(=O)N2CCC(O)CC2)c1` [Form I, 4-fluoro-3-((4-hydroxypiperidin-1-yl)sulfonyl)-N-(3,4,5-trifluorophenyl)benzamide], for which, in series [1], the pH solubility profile entry is “Slightly soluble”. In series [2], the “Hydrophilicity / hygroscopicity rating from DVS” value is reported as “slightly hydrophilic; also recorded: low hydrophilicity”; the “Hysteresis between initial and final state, DVS” value is reported as “No hysteresis”; the “Water (moisture) uptake, DVS” value was determined as 1.5%. Also, the “Hydrophilicity / hygroscopicity rating from DVS” value in series [2] (listed as FI) came out at 100% ⋄ slightly hydrophilic. Further, the solubility in series [3] (organic solvent or mixture, MTBE, 25° C., read-out: Solubility in MTBE) was under 2000 µg/mL. The solubility in series [3] (water, 25° C., read-out: Solubility in water) was under 2000 µg/mL. In series [4], the “Particle size D10 after sonication” value is listed as 4.7 μm, the “Particle size D50 after sonication” value was 14.2 μm, the “Particle size D90 after sonication” value stood at 66.9 μm and the “Particle size D10” value is recorded as 5.8 μm. In series [4], the “Particle size D50” value is 69.1 μm and the “Particle size D90” value is reported as 342.6 μm. In series [4] (listed as FI), the “Particle size D10 after sonication” value is “D10 = 4.7 μm”, the “Particle size D50 after sonication” value is “D50 = 14.2 μm” and the “Particle size D90 after sonication” value is “D90 = 66.9 μm”. In addition, the “XRPD under RH: phase transition” value in series [5] was “No transition phase from 10%”. The “Impact of relative humidity on the crystalline phase (XRPD)” value in series [5] (RH 7-30-90% at 25 or 40° C.) is “no impact”. Moreover, in series [6], the “Decomposition (degradation) temperature” value is “above 300 °C”. Moreover, the “Decomposition (degradation) temperature” value in series [6] (listed as FI) was “Decomposition >300 °C”. Also, in series [7] (heating from 25° C. to 160° C.), the “Temperature from which the phase transition starts (XRPD)” value is 100 °C. In series [7] (heating from 25° C. to 160° C., not reversible), the “Temperature at which the phase transition is complete (XRPD)” value was 160 °C. The “XRPD under temperature: phase transition” value in series [7] is listed as “sensitive to the temperature”. Also, the “XRPD under temperature: phase transition” value in series [7] (listed as FI) is “Complete transition towards”.
On to `O=C(Nc1cc(F)c(F)c(F)c1)c1ccc(F)c(S(=O)(=O)N2CCC(O)CC2)c1` [Compound (1), 4-fluoro-3-((4-hydroxypiperidin-1-yl)sulfonyl)-N-(3,4,5-trifluorophenyl)benzamide], for which the “Solubility in silicon oil” value in series [3] (silicon oil, dispersant of the particle size measurement) was “not soluble”.
For the compound `O=C(Nc1cc(F)c(F)c(F)c1)c1ccc(F)c(S(=O)(=O)N2CCC(O)CC2)c1` [Form XVI, 4-fluoro-3-((4-hydroxypiperidin-1-yl)sulfonyl)-N-(3,4,5-trifluorophenyl)benzamide], the pH solubility profile entry in series [1] was “Slightly soluble”. For the same compound, in series [2], the “Hydrophilicity / hygroscopicity rating from DVS” value is given as “slightly hydrophilic; also recorded: low hydrophilicity”; the “Hysteresis between initial and final state, DVS” value is “No hysteresis”; the “Water (moisture) uptake, DVS” value came to 0.8%. Besides, in series [2] (listed as FXVI), the “Hydrophilicity / hygroscopicity rating from DVS” value is 100% ⋄ slightly hydrophilic and the “Water (moisture) uptake, DVS” value is “Uptake of 0.8% from 0 to”. Further, in series [3] (MTBE, 25° C.), the “Solubility in MTBE” value was “In MTBE <2 g/L at 25 °C”. Further, the Solubility in water entry in series [3] (water, 25° C.) was “In Water <2 g/L at 25 °C”. For the same compound, in series [4], the “Particle size D10 after sonication” value was found to be 4.2 μm, the “Particle size D50 after sonication” value turned out to be 20.0 μm, the “Particle size D90 after sonication” value worked out at 37.5 μm and the “Particle size D10” value was determined as 9.8 μm. Besides, in series [4], the “Particle size D50” value turned out to be 23.7 μm and the “Particle size D90” value is on record as 45.8 μm. Further, in series [4] (listed as FXVI), the “Particle size D10 after sonication” value was “D10 = 4.2 μm”, the “Particle size D50 after sonication” value is “D50 = 20.0 μm” and the “Particle size D90 after sonication” value is recorded as “D90 = 37.5 μm”. Moreover, in series [5], the “XRPD under RH: phase transition” value is listed as “No transition phase from 10%”. For the same compound, the “Impact of relative humidity on the crystalline phase (XRPD)” value in series [5] (RH 7-30-90% at 25 or 45° C.) is “no impact”. Also, the “Stability of the crystalline form with respect to temperature and relative humidity” value in series [5] (XRPD monitoring at higher temperatures and varying humidity) is reported as “high stability; also recorded: maintains its crystallinity; also recorded: highly stable”. Further, the “Decomposition (degradation) temperature” value in series [6] was “above 300 °C”. Besides, the “Decomposition (degradation) temperature” value in series [6] (listed as FXVI) is “Decomposition >300 °C”. In addition, the “XRPD under temperature: phase transition” value in series [7] is reported as “no phase transition”. Further, the “XRPD under temperature: phase transition” value in series [7] (listed as FXVI) is listed as “No transition phase until”.
